Assay results taken from ChEMBL document CHEMBL1201862, “PubChem BioAssay data set” (2004).
The source made the active and inactive calls.

Experiments:
[1] = cells
[2] = target: T1, Oxysterols receptor LXR-beta (Homo sapiens, UniProt P55055); assay type: functional, cell-based;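 further: Cell-based luminescence dose-response assay of agonist activity at LXR, run as a confirmatory counterscreen to a daf-12 agonist screen; HEK293 cells with Gal4-LXR fusion and GAL4-driven luciferase reporter; agonist potency from rising luciferase signal of a Gal4-LXR reporter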
T1 sequence (P55055 whole entry): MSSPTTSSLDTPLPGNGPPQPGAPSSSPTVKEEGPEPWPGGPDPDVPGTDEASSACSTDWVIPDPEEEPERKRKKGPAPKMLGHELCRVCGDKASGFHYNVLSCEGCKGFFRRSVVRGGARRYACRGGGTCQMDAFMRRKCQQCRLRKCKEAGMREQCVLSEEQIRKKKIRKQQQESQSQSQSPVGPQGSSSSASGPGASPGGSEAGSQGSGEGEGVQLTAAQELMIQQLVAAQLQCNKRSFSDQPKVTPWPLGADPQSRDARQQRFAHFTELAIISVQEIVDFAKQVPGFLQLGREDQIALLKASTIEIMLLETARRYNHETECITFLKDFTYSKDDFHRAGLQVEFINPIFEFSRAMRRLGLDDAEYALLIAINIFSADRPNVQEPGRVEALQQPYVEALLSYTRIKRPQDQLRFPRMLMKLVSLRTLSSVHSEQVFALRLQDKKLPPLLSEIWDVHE

[3] = Luminescence Cell-Based Dose Confirmation HTS to Identify Inhibitors of Platelet Dense Granule Release. [Related pubchem assays: 1663 (Primary HTS), 1678 (Summary of Project)]; assay type: functional
[4] = target: T2, Protein skinhead-1 (Caenorhabditis elegans, UniProt P34707); assay type: functional
T2 sequence (P34707 whole entry): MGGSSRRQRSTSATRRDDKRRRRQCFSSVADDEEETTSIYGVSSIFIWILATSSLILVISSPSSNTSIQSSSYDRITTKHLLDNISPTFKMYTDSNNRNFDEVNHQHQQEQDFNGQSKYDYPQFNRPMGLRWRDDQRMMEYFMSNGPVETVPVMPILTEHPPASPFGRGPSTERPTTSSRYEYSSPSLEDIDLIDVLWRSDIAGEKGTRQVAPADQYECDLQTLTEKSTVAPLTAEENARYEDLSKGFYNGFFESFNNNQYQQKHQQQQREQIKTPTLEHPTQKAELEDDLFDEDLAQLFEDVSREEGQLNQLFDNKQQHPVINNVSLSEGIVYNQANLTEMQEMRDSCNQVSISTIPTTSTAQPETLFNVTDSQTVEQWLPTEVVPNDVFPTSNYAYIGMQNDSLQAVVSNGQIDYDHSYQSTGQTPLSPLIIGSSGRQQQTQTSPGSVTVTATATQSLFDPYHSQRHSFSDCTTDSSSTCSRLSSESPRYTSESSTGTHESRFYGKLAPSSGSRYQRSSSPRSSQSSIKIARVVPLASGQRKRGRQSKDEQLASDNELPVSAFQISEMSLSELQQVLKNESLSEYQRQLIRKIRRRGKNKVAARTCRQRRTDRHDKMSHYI

[5] = target: Luciferin 4-monooxygenase (Photinus pyralis, UniProt P08659); assay: firefly luciferase enzyme inhibitors, dose response, biochemical, luminescence (AID 1891)
[6] = target: T3, Mannose-6-phosphate isomerase (Homo sapiens, UniProt P34949); assay: human PMI inhibitors, high substrate, primary screen, biochemical, fluorescence intensity, high mannose 6-phosphate (AID 1220)
T3 sequence (P34949 whole entry): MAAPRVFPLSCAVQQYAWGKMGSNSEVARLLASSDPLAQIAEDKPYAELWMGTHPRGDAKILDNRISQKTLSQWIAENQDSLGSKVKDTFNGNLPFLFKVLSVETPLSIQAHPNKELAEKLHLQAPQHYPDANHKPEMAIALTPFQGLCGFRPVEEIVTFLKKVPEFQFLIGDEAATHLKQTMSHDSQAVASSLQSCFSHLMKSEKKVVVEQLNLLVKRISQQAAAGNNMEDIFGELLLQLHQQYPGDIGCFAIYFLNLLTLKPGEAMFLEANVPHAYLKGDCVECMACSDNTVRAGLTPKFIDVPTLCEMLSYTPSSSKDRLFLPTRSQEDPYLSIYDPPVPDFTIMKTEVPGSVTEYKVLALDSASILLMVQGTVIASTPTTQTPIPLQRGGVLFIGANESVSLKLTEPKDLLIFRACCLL

[7] = target: Glucose-6-phosphate 1-dehydrogenase (Homo sapiens, UniProt P11413); assay: human G6PD enzyme inhibitors, dose response, selectivity assay for P. falciparum G6PD inhibitor project, biochemical, fluorescence (AID 504792); assay type: functional
[8] = target: Paired box protein Pax-8 (Homo sapiens, UniProt Q06710); assay: inhibitors of PAX8-driven TPO luciferase reporter, dose response, RMG-I cells, cherry-pick (AID 687027); assay type: functional, cell-based;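 further: luciferase reporter driven by Pax8 target thyroperoxidase promoter measured by SteadyGlo luminescence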
[9] = ZM109 Env clade C HIV-1 fusion inhibitors, dose response, HeLa effector, CEM target cells, luciferase, cherry-pick (AID 652058); assay type: functional, cell-based
[10] = CEM21 lymphoblast cell cytotoxicity, dose response, cytotoxicity control for viral fusion inhibitor project, CellTiter-Glo luminescence, cherry-picked (AID 652042); assay type: functional, cell-based;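 further: potency for signal decrease meaning cytotoxicity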
[11] = inhibitors of HIV Env-driven cell fusion, dose response, cherry-pick (AID 652057); assay type: functional, cell-based
[12] = target: T4, Microphthalmia-associated transcription factor (Homo sapiens, UniProt O75030); assay: TRPM1 promoter luciferase signal decrease, dose response, MITF inhibitor project, cell-based, SK-MEL-5, cherry-picked, set 3 (AID 493073); assay type: functional
T4 sequence (O75030 whole entry): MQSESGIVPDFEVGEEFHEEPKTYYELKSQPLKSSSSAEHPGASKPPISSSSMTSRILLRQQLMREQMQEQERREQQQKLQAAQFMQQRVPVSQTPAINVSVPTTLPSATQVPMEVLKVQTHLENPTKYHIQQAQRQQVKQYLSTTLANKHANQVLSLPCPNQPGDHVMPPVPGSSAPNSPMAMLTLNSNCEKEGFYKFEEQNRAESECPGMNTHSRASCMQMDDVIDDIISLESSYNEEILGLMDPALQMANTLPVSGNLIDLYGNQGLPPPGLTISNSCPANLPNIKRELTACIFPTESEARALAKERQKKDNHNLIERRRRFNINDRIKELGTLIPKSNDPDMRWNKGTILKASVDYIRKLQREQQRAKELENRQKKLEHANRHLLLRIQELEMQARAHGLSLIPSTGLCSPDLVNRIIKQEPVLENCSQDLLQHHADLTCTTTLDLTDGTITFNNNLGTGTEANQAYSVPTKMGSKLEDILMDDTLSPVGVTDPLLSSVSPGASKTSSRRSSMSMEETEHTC

[13] = off-target signal loss in HeLa-CEM21 co-culture – HeLa F-luc CTL cells, cherry-picked, counter-screen for HIV-1 Env fusion inhibitor project, dose response (AID 652040); assay type: functional, cell-based;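 further: potency for signal decrease marking cytotoxic or nonspecific inhibition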
[14] = non-specific cell cytotoxicity, dose response, cytotoxicity control for PAX8 inhibitor project, plate reader, dry powder samples (AID 743021); assay type: functional, cell-based
[15] = inhibitors of clade B AD8 Env fusion, dose response, cell-based, cherry-pick (AID 652062); assay type: functional;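 further: luciferase signal from cell-cell fusion driven by HIV-1 clade B AD8 Env; potency is for inhibitors of fusion seen as a drop in luminescence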
[16] = A549 cell cytotoxicity, dose response, cytotoxicity control, plate reader, cherry-pick, antagonist series (AID 743412); assay type: functional, cell-based
[17] = MC4R antagonists, dose response, counter-screen for LGR2 antagonist project, cell-based, plate reader, cherry pick (AID 743444); assay type: functional;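 further: transfected HEK 293 cells stimulated with alpha-MSH peptide; potency of inhibitors of the alpha-MSH evoked signal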
[18] = HEK293 cell cytotoxicity, dose response, cytotoxicity control, plate reader, cherry-picked samples (AID 743446); assay type: functional, cell-based
[19] = LGR2 antagonists, dose response, cell-based, HEK293, CRE-luciferase reporter, cherry pick, set 2 (AID 743343); assay type: functional;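 further: transfected cells were stimulated with diluted bursicon conditioned medium after compound addition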
[20] = HepG2 cell cytotoxicity, dose response, cytotoxicity control, plate reader, cherry-pick, antagonist series (AID 743416); assay type: functional, cell-based
[21] = cytotoxicity in OVCAR8 ovarian cancer cells, dose response, PAX8 project, cell-based, plate reader, dry powder samples (AID 743197); assay type: functional; details: OVCAR-8
[22] = target: Mitogen-activated protein kinase 10 (Homo sapiens, UniProt P53779); assay: Dose response biochemical screening assay for inhibitors of c-Jun N-Terminal Kinase 3 (JNK3). [Related pubchem assays: 746 ]
Mitogen-activated protein kinase 10, sequence (P53779 whole entry): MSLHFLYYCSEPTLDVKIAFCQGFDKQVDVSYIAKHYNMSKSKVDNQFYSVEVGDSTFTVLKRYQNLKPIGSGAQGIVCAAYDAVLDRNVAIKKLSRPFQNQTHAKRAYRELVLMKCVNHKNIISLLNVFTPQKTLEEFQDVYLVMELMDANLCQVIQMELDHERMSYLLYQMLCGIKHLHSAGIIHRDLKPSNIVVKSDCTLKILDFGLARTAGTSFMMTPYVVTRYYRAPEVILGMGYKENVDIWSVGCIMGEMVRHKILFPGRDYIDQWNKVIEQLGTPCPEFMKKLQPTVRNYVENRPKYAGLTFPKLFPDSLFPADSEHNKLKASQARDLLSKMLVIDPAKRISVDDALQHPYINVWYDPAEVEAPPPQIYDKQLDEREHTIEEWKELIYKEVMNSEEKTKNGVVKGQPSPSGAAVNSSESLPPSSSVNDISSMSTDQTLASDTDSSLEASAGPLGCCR

Paired box protein Pax-8, sequence (Q06710 whole entry, the tested form may be a part): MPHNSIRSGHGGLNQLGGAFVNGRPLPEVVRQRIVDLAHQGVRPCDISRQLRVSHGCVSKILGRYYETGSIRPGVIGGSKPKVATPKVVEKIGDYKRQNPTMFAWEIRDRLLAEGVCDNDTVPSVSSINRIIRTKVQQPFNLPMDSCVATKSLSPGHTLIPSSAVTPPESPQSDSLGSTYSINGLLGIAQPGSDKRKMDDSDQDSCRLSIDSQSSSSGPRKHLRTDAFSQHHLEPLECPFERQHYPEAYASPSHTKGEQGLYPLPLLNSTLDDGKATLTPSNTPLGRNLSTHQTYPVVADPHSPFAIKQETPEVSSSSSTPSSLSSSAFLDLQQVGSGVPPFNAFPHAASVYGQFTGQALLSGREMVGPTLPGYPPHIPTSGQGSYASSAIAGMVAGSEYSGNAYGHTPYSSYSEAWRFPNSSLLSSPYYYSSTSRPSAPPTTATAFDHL
Luciferin 4-monooxygenase, sequence (P08659 whole entry): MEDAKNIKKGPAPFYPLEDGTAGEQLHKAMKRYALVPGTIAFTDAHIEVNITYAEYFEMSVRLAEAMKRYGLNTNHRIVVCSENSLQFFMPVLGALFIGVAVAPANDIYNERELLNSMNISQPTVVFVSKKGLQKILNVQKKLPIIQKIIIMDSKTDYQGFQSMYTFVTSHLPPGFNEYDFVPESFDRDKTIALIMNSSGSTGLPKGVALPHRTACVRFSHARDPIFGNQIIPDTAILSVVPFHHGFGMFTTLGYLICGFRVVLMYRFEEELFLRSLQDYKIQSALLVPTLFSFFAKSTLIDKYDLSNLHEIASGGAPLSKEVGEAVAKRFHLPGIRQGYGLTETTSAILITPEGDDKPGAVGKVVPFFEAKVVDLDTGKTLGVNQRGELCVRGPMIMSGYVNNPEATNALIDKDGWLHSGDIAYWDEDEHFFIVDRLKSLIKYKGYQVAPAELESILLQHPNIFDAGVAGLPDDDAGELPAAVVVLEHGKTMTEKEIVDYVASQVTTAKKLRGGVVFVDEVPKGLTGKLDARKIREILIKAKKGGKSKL
Glucose-6-phosphate 1-dehydrogenase, sequence (P11413 whole entry): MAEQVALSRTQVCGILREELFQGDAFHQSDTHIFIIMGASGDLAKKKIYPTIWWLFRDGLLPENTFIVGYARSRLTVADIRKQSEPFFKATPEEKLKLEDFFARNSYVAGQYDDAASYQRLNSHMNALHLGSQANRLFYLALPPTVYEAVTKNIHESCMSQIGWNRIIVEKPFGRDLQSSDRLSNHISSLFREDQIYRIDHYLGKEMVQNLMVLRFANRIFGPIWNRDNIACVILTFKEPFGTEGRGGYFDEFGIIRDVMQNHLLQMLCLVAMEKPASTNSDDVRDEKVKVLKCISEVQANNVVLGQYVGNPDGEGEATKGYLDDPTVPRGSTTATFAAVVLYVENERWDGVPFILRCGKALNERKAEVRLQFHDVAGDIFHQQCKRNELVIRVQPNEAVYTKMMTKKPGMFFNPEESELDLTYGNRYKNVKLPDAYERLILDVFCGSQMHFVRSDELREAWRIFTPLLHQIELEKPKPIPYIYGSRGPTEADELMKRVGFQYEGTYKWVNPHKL

**Q.** Which results are given for `Cc1ccnc(NC(=S)NC(=O)c2cccs2)c1`?
**A.** EC50 [1]: > 67.5 µM (inactive); EC50 [2]: > 67.5 µM (inactive)

**Q.** For `Cn1c(-c2ccco2)nc2cc3ccccc3cc21`, which EC50 [1] is on record?
**A.** Its EC50 is > 67.5 µM (inactive).

**Q.** And the EC50 [3]?
**A.** Its EC50 is 2.69 µM (active).

**Q.** What about the IC50 [4] of the same compound?
**A.** Its IC50 is 33.9 µM (active).

**Q.** And the EC50 [2]?
**A.** The EC50 was > 67.5 µM (inactive).

**Q.** What about the EC50 [5] of the same compound?
**A.** Its EC50 is 0.695 µM (active).

**Q.** Which results are given for `CC(C)(C)NC(=O)COc1ccc(CNc2ccc3[nH]c(O)nc3c2)cc1`?
**A.** IC50 [6]: > 50 µM (not active); EC50 [3]: 17.9 µM (active); IC50 [7]: 64.6 µM (inactive); EC50 [5]: > 112 µM (not active)

**Q.** For `O=C(O)c1ccc(N/N=C/c2ccc3nccnc3c2)cc1`, which AC50 [8] is on record?
**A.** Its AC50 is 2.07 µM (active).

**Q.** And the AC50 [9]?
**A.** Its AC50 is 6.51 µM (active).

**Q.** And the AC50 [10]?
**A.** The AC50 was 46.5 µM (active).

**Q.** And the AC50 [11]?
**A.** The AC50 was 0.685 µM (active).

**Q.** And the AC50 [12]?
**A.** The AC50 was 0.696 µM (active).

**Q.** What about the EC50 [3] of the same compound?
**A.** Its EC50 is 7.25 µM (active).

**Q.** What about the AC50 [13] of the same compound?
**A.** Its AC50 is 2.97 µM (active).

**Q.** What about the AC50 [14] of the same compound?
**A.** The AC50 was 30.5 µM (active).

**Q.** And the EC50 [5]?
**A.** The EC50 was 3.43 µM (active).

**Q.** And the AC50 [15]?
**A.** The AC50 was 2.13 µM (active).

**Q.** What does the source list for `COc1ccccc1-c1ccc(OCCCN2CCC(C(O)(c3ccccc3)c3ccccc3)CC2)cc1`?
**A.** AC50 [16]: 5.11 µM (active); AC50 [8]: 10.2 µM (active); AC50 [17]: 18.1 µM (active); AC50 [14]: 28.1 µM (active); AC50 [18]: 9.63 µM (active); AC50 [19]: 16.3 µM (active); AC50 [20]: 6.44 µM (active)

**Q.** With `COc1ccccc1C#Cc1ccc2c(c1)O[C@H](CN(C)Cc1cccnc1)[C@H](C)CN([C@H](C)CO)S2(=O)=O` as the compound, how does the AC50 [21] read?
**A.** Its AC50 is 31.8 µM (active).

**Q.** What about the AC50 [8] of the same compound?
**A.** Its AC50 is 8.98 µM (active).

**Q.** For `O=C1C(/C=N/c2ccccc2O)=C(O)c2ccccc21`, which IC50 [22] is on record?
**A.** The IC50 was 23.1 µM (not active).

**Q.** What about the EC50 [1] of the same compound?
**A.** Its EC50 is > 67.5 µM (inactive).

**Q.** And the EC50 [2]?
**A.** Its EC50 is > 67.5 µM (inactive).

**Q.** Which IC50 [6] does the source give for `O=C(CNc1cccc2ccccc12)N/N=C/C=C/c1ccco1` here?
**A.** Its IC50 is > 50 µM (not active).
